Patent US9714247B2, “Multiple kinase pathway inhibitors” (Mannkind Corporation, priority 2012, dated 2017)
Like-named read-outs stand apart in the source and are kept apart here.

Assays:
DoHH2 [1] = assay: CellTiter-Glo proliferation/viability assay; assay type: cell-based, human
Ramos [2] = assay: CellTiter-Glo proliferation/viability assay; assay type: cell-based, human
SuDHL6 = assay: Proliferation/viability assay; assay type: cell-based; conditions: Table 10, B Lymphoma, read-out: Effect on Tumor Cell Growth EC50, SuDHL6
PC3 [3] = assay: Proliferation/viability assay; assay type: cell-based; conditions: Table 10, Prostate Ca, read-out: Effect on Tumor Cell Growth EC50, PC3
Ramos [4] = conditions: cited from earlier work
[5] = tested on: PLCγ2 phosphorylation in Ramos cells; assay: PLCγ2 phosphorylation by flow cytometry; assay type: cell-based, human; conditions: Homo sapiens, 0.3 uM, flow cytometry, anti-phospho PLCγ2 (Tyr759), read-out: pPLCγ % inhibition
How it was run: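 Ramos cells starved 18 h in 1% FBS, pretreated with inhibitor 2 h, then stimulated with anti-IgM (10 ug/ml final) plus 3.3 mM H2O2 for 2 min, then cross-linking F(ab) (10 ug/ml) plus H2O2 for 8 min. Fixed, permeabilized cells stained with PE anti-phospho-PLCγ2 (Tyr1217 or Tyr759), dead cells gated out; ED50 from geometric mean fluorescence over four inhibitor concentrations.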

[6] = tested on: phosphorylation of SFKs in Ramos cells; assay: SFK phosphorylation (Tyr 416) by flow cytometry; assay type: cell-based, human; conditions: Homo sapiens, 0.3 uM, flow cytometry, SFK phosphorylated at Tyr 416, read-out: pSRC % inhibition
How it was run: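 Ramos cells pretreated with compound 2 hrs in RPMI with 5% FBS, then stimulated 10 minutes with H2O2/anti-IgM. Phospho-Tyr 416 SFK detected by flow cytometry with an antibody that may cross-react across Src family members, plus fluorescent secondary antibody.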

RBL-2H3 cells = assay: Degranulation (β-hexosaminidase release) colorimetric assay; assay type: cell-based; conditions: Rattus norvegicus, RBL-2H3, IgE / DNP-BSA
Description: Crosslinking of IgE receptors leads to induction of intracellular signal transduction pathways and degranulation of mast cells and basophils leading to the release of histamine, serotonin and cytokines that constitutes an allergic reaction. […] One of the factors secreted on induction of degranulation is β-hexosaminidase. A colorimetric assay using 4-nitrophenyl N-acetyl-3-D-glucosaminide (Sigma-Aldrich) as a substrate was used to estimate the amount of enzyme secreted upon degranulation. In brief, RBL-2H3 (ATCC # CRL 2256) cells were plated overnight in the presence of IgE (monoclonal anti-dinitrophenyl antibody from Sigma-Aldrich). The next day, cells were treated with compounds in cell culture media, washed and treated with DNP-BSA for 1 hour (Sigma-Aldrich) in Tyrodes's buffer to induce degranulation. The level of 3-hexosaminidase was analyzed in cell-free supernates and cell lysates and the amount of β-hexosaminidase released was calculated. EC50 values were generated using varying concentrations of inhibitors. […] Thus amino naphthyridinones can be used to inhibit immunologic functions such as degranulation.

BTK = BTK (Homo sapiens (Human), UniProt Q06187)
Src [7] = biological target: T1, Src (Homo sapiens (Human), UniProt P12931); conditions: read-out: Src IC50
Lyn [8] = biological target: T2, Lyn (Homo sapiens (Human), UniProt P07948); conditions: read-out: Lyn IC50
Src [9] = biological target: T1, Src; assay: biochemical
Lyn [10] = biological target: T2, Lyn; assay: biochemical; conditions: Lyn IC50
DoHH2 [11] = conditions: cited from earlier work
DoHH2 [12] = assay: Apoptosis by flow cytometry (Annexin V / 7AAD); assay type: cell-based, human; conditions: Table 5; positive control, concentration not given
Description: Activation of Tec family kinases including BTK, and/or Src kinase family members, regulates cell survival and cell death in normal B cells, lymphomas, and solid tumors. Apoptosis is a programmed cell death characterized by specific changes in cell morphology. […] Staurosporine was used as a positive control for apoptosis. […] Table 6 illustrates that several amino naphthyridinones induce significant apoptosis in DoHH2 cells.

Ramos [13] = assay: Apoptosis by flow cytometry (Annexin V / 7AAD); assay type: cell-based, human; conditions: Table 5; positive control, concentration not given
PC3 [14] = assay: Apoptosis by flow cytometry (Annexin V / 7AAD); assay type: cell-based; conditions: Table 5; positive control, concentration not given
[15] = Homo sapiens, DOHH-2, 48 hrs, read-out: DoHH2 EC50
[16] = Homo sapiens, Ramos, 48 hrs, read-out: Ramos EC50
[17] = Homo sapiens, Ramos, 48 h, read-out: Ramos EC50

T1 sequence (P12931 whole entry, looked up): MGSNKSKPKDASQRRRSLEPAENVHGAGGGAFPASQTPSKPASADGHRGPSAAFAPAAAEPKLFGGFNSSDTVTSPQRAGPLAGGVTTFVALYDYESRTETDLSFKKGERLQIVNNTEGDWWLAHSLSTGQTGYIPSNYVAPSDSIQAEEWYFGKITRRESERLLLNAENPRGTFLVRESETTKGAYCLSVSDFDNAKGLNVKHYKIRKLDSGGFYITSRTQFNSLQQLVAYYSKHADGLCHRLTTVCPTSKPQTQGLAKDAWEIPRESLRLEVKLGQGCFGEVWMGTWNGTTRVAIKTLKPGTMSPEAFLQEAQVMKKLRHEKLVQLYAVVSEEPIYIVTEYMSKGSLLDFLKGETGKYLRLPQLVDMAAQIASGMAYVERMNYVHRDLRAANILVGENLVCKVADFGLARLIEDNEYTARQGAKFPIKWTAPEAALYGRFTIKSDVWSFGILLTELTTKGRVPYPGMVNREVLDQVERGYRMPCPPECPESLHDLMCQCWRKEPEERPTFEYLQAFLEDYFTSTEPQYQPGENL
T2 sequence (P07948 whole entry): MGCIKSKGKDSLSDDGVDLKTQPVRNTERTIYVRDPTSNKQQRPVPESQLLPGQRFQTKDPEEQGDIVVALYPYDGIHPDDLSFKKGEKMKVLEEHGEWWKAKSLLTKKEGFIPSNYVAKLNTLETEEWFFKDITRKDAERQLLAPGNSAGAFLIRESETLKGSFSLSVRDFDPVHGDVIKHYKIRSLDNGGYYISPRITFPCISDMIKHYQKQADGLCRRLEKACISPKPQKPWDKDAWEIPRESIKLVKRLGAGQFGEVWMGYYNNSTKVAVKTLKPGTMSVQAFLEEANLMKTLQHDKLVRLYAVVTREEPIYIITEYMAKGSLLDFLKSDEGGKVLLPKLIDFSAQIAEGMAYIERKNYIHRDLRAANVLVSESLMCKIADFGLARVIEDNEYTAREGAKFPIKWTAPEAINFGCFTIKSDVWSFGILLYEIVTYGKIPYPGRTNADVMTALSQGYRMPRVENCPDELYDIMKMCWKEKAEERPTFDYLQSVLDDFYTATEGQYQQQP
Sequence of BTK (Q06187 whole entry): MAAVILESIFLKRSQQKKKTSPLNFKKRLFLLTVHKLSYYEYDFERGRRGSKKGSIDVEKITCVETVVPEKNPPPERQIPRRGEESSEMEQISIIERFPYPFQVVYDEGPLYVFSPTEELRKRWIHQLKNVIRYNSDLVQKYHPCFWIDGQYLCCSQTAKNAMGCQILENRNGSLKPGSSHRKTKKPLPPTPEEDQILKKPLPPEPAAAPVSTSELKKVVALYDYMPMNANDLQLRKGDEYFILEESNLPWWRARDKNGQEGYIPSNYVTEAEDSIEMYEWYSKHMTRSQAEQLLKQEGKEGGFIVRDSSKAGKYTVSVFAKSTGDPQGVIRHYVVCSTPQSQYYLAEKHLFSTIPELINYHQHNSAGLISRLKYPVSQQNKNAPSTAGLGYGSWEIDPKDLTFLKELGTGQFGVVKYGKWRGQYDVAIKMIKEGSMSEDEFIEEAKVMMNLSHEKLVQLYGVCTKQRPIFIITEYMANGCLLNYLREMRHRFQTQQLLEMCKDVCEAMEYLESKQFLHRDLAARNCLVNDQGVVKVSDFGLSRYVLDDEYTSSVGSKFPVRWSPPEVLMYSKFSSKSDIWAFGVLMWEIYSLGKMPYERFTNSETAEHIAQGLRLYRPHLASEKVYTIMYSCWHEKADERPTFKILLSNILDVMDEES

| EC50 (Ramos [2]; [16]) [µM] | EC50 (RBL-2H3 cells) [µM] | SMILES | EC50 (DoHH2 [1]; [15]) [µM] | inhibition at 0.3 µM [5] [%] | inhibition at 0.3 µM [6] [%] | IC50 (Src [7]) [µM] | IC50 (Lyn [8]) [µM] | IC50 (BTK; read-out: BTK IC50) [µM] | also measured |
| --- | --- | --- | --- | --- | --- | --- | --- | --- | --- |
| > 10 | > 5 | CC(C)n1c(=O)c(-c2c(F)cccc2F)cc2cnc(Nc3ccc(F)cn3)cc21 [Compound 78, 3-(2,6-difluorophenyl)-7-((5-fluoropyridin-2-yl)amino)-1-isopropyl-1,6-naphthyridin-2(1H)-one] | < 1 | 55 | 8 |  |  |  | IC50 (BTK): 0.1 to 1 µM |
| 1 to 10 | 2.99 | CCN(CC)CCOc1ccc(Nc2cc3c(cn2)cc(-c2ccc(F)cc2C)c(=O)n3CC)nc1 [Compound 99, 7-((5-(2-(diethylamino)ethoxy)pyridin-2-yl)amino)-1-ethyl-3-(4-fluoro-2-methylphenyl)-1,6-naphthyridin-2(1H)-one] | < 1 | 83 | 40 | < 0.1 | < 0.1 | < 0.1 |  |
| 1 to 10 | 3.11 | CN1CCN(CCn2c(=O)c(-c3c(F)cccc3F)cc3cnc(Nc4ccc(F)cn4)cc32)CC1 [Compound 134, 3-(2,6-difluorophenyl)-7-((5-fluoropyridin-2-yl)amino)-1-(2-(4-methylpiperazin-1-yl)ethyl)-1,6-naphthyridin-2(1H)-one] | < 1 | 80 | 44 | < 0.1 | < 0.1 | < 0.1 |  |
|  | > 5 | CN1CC[C@@H](n2c(=O)c(-c3c(F)cccc3F)cc3cnc(Nc4ccc(F)cn4)cc32)C1 [Compound 152, (R)-3-(2,6-difluorophenyl)-7-((5-fluoropyridin-2-yl)amino)-1-(1-methylpyrrolidin-3-yl)-1,6-naphthyridin-2(1H)-one] | < 1 |  |  |  |  |  | EC50 (Ramos [2]; [17]): > 10 µM; IC50 (Src [9]): 0.1 to 1 µM; IC50 (Lyn [10]): 0.1 to 1 µM |

More lines, now with the values behind:

| SMILES | EC50 (Ramos [2]; [16]) [µM] | EC50 (RBL-2H3 cells) [µM] | EC50 (DoHH2 [1]; [15]) [µM] | inhibition at 0.3 µM [5] [%] | inhibition at 0.3 µM [6] [%] | IC50 (Src [7]) [µM] | IC50 (Lyn [8]) [µM] | IC50 (BTK; read-out: BTK IC50) [µM] | also measured |
| --- | --- | --- | --- | --- | --- | --- | --- | --- | --- |
| CN1CCN(CCOc2cc(OC3CCOCC3)c3c(Nc4c(Cl)ccc5c4OCO5)ncnc3c2)CC1 [AZN0530] |  |  |  |  |  |  |  |  | EC50 (DoHH2 [1]; Table 10, B Lymphoma, read-out: Effect on Tumor Cell Growth EC50, DOHH2): 2.4 µM; EC50 (Ramos [2]; Table 10, B Lymphoma, read-out: Effect on Tumor Cell Growth EC50, Ramos): > 10 µM; EC50 (SuDHL6): 2.5 µM; EC50 (PC3 [3]): > 10 µM; Resistance of Ramos to known kinase inhibitors (Ramos [4]): resistant |
| CCn1c(=O)c(-c2c(F)cccc2F)cc2cnc(Nc3ccc(N(C)C4CCN(C)CC4)cn3)cc21 [Compound 95, 3-(2,6-difluorophenyl)-1-ethyl-7-((5-(methyl(1-methylpiperidin-4-yl)amino)pyridin-2-yl)amino)-1,6-naphthyridin-2(1H)-one] |  | 2.22 | < 1 | 87 | 56 | < 0.1 | < 0.1 | < 0.1 | EC50 (Ramos [2]; [17]): 1 to 10 µM |
| CCN(CC)CCOc1ccc(Nc2cc3c(cn2)cc(-c2c(Cl)cccc2Cl)c(=O)n3CC)nc1 [Compound 101, 3-(2,6-dichlorophenyl)-7-((5-(2-(diethylamino)ethoxy)pyridin-2-yl)amino)-1-ethyl-1,6-naphthyridin-2(1H)-one] | 1 to 10 | 0.95 | < 1 | 92 | 70 | < 0.1 | < 0.1 | < 0.1 |  |
| CCn1c(=O)c(-c2c(O)cccc2F)cc2cnc(Nc3ccc(N(C)C4CCN(C)CC4)cn3)cc21 [Compound 120, 1-ethyl-3-(2-fluoro-6-hydroxyphenyl)-7-((5-(methyl(1-methylpiperidin-4-yl)amino)pyridin-2-yl)amino)-1,6-naphthyridin-2(1H)-one] | 1 to 10 | 2.22 | < 1 | 87 | 57 | < 0.1 | < 0.1 | < 0.1 |  |
| COCCn1c(=O)c(-c2c(F)cccc2F)cc2cnc(Nc3ccc(N(C)C4CCN(C)CC4)cn3)cc21 [Compound 129, 3-(2,6-difluorophenyl)-1-(2-methoxyethyl)-7-((5-(methyl(1-methylpiperidin-4-yl)amino)pyridin-2-yl)amino)-1,6-naphthyridin-2(1H)-one] | 1 to 10 | > 5 | < 1 | 88 | 66 | < 0.1 | < 0.1 | < 0.1 |  |
| CC(C)n1c(=O)c(-c2c(F)cccc2F)cc2cnc(Nc3ccc(N(C)C4CCN(C)CC4)cn3)cc21 [Compound 137, 3-(2,6-difluorophenyl)-1-isopropyl-7-((5-(methyl(1-methylpiperidin-4-yl)amino)pyridin-2-yl)amino)-1,6-naphthyridin-2(1H)-one] |  | 1.14 | < 1 | 98 | 81 | < 0.1 | < 0.1 | < 0.1 | EC50 (Ramos [2]; [17]): 1 to 10 µM |
| Cc1ccc(NC(=O)c2ccc(CN3CC[C@H](N(C)C)C3)c(C(F)(F)F)c2)cc1Nc1nccc(-c2cncnc2)n1 [Inno-406] |  |  |  |  |  |  |  |  | EC50 (DoHH2 [1]; Homo sapiens, DOHH-2, Table 10, B Lymphoma, read-out: Effect on Tumor Cell Growth EC50, DOHH2): 6.9 µM; EC50 (Ramos [2]; Homo sapiens, Ramos, Table 10, B Lymphoma, read-out: Effect on Tumor Cell Growth EC50, Ramos): 7.3 µM; EC50 (SuDHL6; Homo sapiens, SU-DHL-6): 5.7 µM; EC50 (PC3 [3]; Homo sapiens, PC-3): > 10 µM; Resistance of Ramos to known kinase inhibitors (Ramos [4]): resistant |
| Cc1nc(Nc2ncc(C(=O)Nc3c(C)cccc3Cl)s2)cc(N2CCN(CCO)CC2)n1 [dasatinib] |  |  |  |  |  |  |  |  | Response of DoHH2 to known drugs (DoHH2 [11]): responds; Resistance of Ramos to known kinase inhibitors (Ramos [4]): resistant |
| CN[C@@H]1C[C@H]2O[C@@](C)([C@@H]1OC)n1c3ccccc3c3c4c(c5c6ccccc6n2c5c31)C(=O)NC4 [staurosporine, Staurosporine, reference compound] |  |  |  |  |  |  |  |  | Percent Apoptosis DOHH2 (DoHH2 [12]): 95.86%; Percent Apoptosis Ramos (Ramos [13]): 73.74%; Percent Apoptosis PC3 (PC3 [14]): 47.16% |
